In ChEMBL document CHEMBL4316625, “Double prodrugs of a fosmidomycin surrogate as antimalarial and antitubercular agents” (Bioorg Med Chem Lett, 2019):

System: Mycobacterium tuberculosis
Test: Antitubercular activity against Mycobacterium tuberculosis H37Ra ATCC 25177 transformed with pSMT1 luciferase reporter plasmid reduction in bacterial multiplication incubated for 7 days by luminometric assay
Assay type: functional, organism-based
Details: H37Ra ATCC 25177, 168 h

Structure (SMILES) | MIC [µM]
CC(=O)ON(C)C(=O)CCCP(=O)(OCOC(=O)C(C)(C)C)OCOC(=O)C(C)(C)C | > 64
CN(OC(=O)Nc1ccccc1)C(=O)CCCP(=O)(OCOC(=O)C(C)(C)C)OCOC(=O)C(C)(C)C | > 64
